Reference: patent US20190374509A1, “Methods of Using Metamizole for Treatment of Pyrexia in Equines” (Kindred Biosciences, Inc., priority 2018, published 2019)

Test system: horses
Test: Margin of safety study, IV three times daily for 9 days: clinical pathology (serum chemistry, hematology, urinalysis), body weight, physical examination
Type: in vivo
Procedure: A study was conducted to evaluate the margin of safety of metamizole when administered intravenously to horses for 9 days at doses of 0 mg/kg (0×), 30 mg/kg (1×), 60 mg/kg (2×), and 90 mg/kg (3×) of body weight three times daily (TID), every 8 hours±30 min.
This was a prospective, blinded, randomized, placebo-controlled, parallel-group laboratory study in research horses. Thirty-two horses were enrolled in the study (Table 1).
Treatment phase involved administration of the investigational drug or placebo. The investigational drug was a sterile injectable formulation of dipyrone (Zimeta™, Corden Pharma, Caponago, Italy) (500 mg/mL) in 100 mL glass bottles. The placebo was sterile injectable saline (Nova-Tech Inc, Grand Island, NE) (0.9% sodium chloride) in 500 mL plastic bottles labeled for veterinary use. Dipyrone treatment groups were 30 mg/kg (1×), 60 mg/kg (2×), and 90 mg/kg (3×). Placebo treatment group was saline administered at a volume to match the 3× dipyrone group (0×). The dose was calculated based on body weight and administered three times daily for nine consecutive days. Due to the large volume of injection at the higher dose groups, treatment was administered via indwelling intravenous (IV) catheters. Intravenous catheters were placed using standard techniques. Horses were sedated with xylazine (AnaSed® LA, VetOne, MWI, Boise, Id.) and the skin was desensitized with subcutaneous injection of lidocaine (VetOne, MWI, Boise, Id.). Intravenous catheters were replaced at the discretion of the study director and were maintained with heparinized saline flush prior to and following dose administration.
Randomization occurred on Study Day −1. […] .
All statistical analyses were performed using SAS, version 9.4 (SAS Institute, Cary, N.C.). The individual horse was the experimental unit in the statistical analysis. For statistical modeling, all main effects, interaction terms, and pairwise comparisons of the active groups (dipyrone) with the placebo group were assessed at the two-sided 0.10 significance level (unadjusted) with the exception of the three-way interaction, which was assessed at the two-sided 0.05 significance level (unadjusted).
For continuous endpoints with repeated post-treatment measurements (serum chemistry, coagulation, hematology, urinalysis, body weight, body temperature, heart rate and respiratory rate), repeated measurement analysis of covariance (SAS MIXED procedure RMANCOVA) was used to evaluate a model including treatment, time, sex, treatment by sex interaction, treatment by time interaction, and treatment by time by sex three-way interaction as fixed effects. In addition, baseline values were included as a covariate and remained in the model regardless of its significance. Baseline values were defined as the values prior to and nearest to the first dosing.

[1] = 1X, 30 mg/kg IV every 8 hours, Day 4
[2] = 1X, 30 mg/kg IV every 8 hours, Day 8
[3] = 1X, 30 mg/kg IV every 8 hours, Mares
[4] = 2X, 60 mg/kg IV every 8 hours, Day 4
[5] = 2X, 60 mg/kg IV every 8 hours, Day 8
[6] = 2X, 60 mg/kg IV every 8 hours, Mares
[7] = 3X, 90 mg/kg IV every 8 hours, Day 4
[8] = 3X, 90 mg/kg IV every 8 hours, Day 8
[9] = 3X, 90 mg/kg IV every 8 hours, Mares

Cc1c(N(C)CS(=O)(=O)O)c(=O)n(-c2ccccc2)n1C [dipyrone, [(2,3-dihydro-1,5-dimethyl-3-oxo-2-phenyl-1H-pyrazol-4-yl)methylamino] methanesulfonic acid]
Absolute Basophil Count Day 4 Range [1]: 0.00-0.19 cells 10^3/μL
Cholesterol Day 4 Range [1]: 54 to 77 mg/dL
Cholesterol LS Means [1]: 65.352 mg/dL
Creatinine Day 4 Range [1]: 0.9 to 2.0 mg/dL
Mean Corpuscular Hemoglobin Concentration Day 4 Range [1]: 34.9 to 36.1 g/dL
Mean Corpuscular Volume Day 4 Range [1]: 40.8 to 48.7 fL
Mean Corpuscular Volume LS Means [1]: 46.512 fL
Percent Basophil Day 4 Range [1]: 0.0-2.3%
Total Bilirubin Day 4 Range [1]: 0.8 to 3.4 mg/dL
Total Bilirubin LS Means [1]: 2.301 mg/dL
Absolute Basophil Count Day 8 Range [2]: 0.00-0.52 cells 10^3/μL
Cholesterol Day 8 Range [2]: 64 to 87 mg/dL
Creatinine Day 8 Range [2]: 0.6 to 1.6 mg/dL
Creatinine LS Means [2]: 1.118 mg/dL
Mean Corpuscular Hemoglobin Concentration Day 8 Range [2]: 34.1 to 39.4 g/dL
Mean Corpuscular Hemoglobin Concentration LS Means [2]: 35.513 g/dL
Mean Corpuscular Volume Day 8 Range [2]: 40.8 to 49.3 fL
Mean Corpuscular Volume LS Means [2]: 47.000 fL
Percent Basophil Day 8 Range [2]: 0.0-2.6%
Total Bilirubin Day 8 Range [2]: 1.7 to 4.1 mg/dL
Total Bilirubin LS Means [2]: 2.914 mg/dL
Percent Basophil LS Means (1X, 30 mg/kg IV every 8 hours, Geldings): 0.849%
Absolute Basophil Count LS Means [3]: 0.200 cells 10^3/μL
Percent Basophil LS Means [3]: 1.374%
Absolute Basophil Count Day 4 Range [4]: 0.00-0.12 cells 10^3/μL
Cholesterol Day 4 Range [4]: 43 to 74 mg/dL
Cholesterol LS Means [4]: 56.772 mg/dL
Creatinine Day 4 Range [4]: 1.1 to 2.0 mg/dL
Mean Corpuscular Hemoglobin Concentration Day 4 Range [4]: 34.2 to 36.1 g/dL
Mean Corpuscular Volume Day 4 Range [4]: 41.7 to 49.4 fL
Mean Corpuscular Volume LS Means [4]: 46.284 fL
Percent Basophil Day 4 Range [4]: 0.0-1.3%
Total Bilirubin Day 4 Range [4]: 1.6 to 4.0 mg/dL
Total Bilirubin LS Means [4]: 2.745 mg/dL
Absolute Basophil Count Day 8 Range [5]: 0.00-0.21 cells 10^3/μL
Cholesterol Day 8 Range [5]: 52 to 87 mg/dL
Creatinine Day 8 Range [5]: 0.6 to 1.4 mg/dL
Creatinine LS Means [5]: 0.958 mg/dL
Mean Corpuscular Hemoglobin Concentration Day 8 Range [5]: 32.9 to 35.5 g/dL
Mean Corpuscular Hemoglobin Concentration LS Means [5]: 34.080 g/dL
Mean Corpuscular Volume Day 8 Range [5]: 43.2 to 50.8 fL
Mean Corpuscular Volume LS Means [5]: 47.134 fL
Percent Basophil Day 8 Range [5]: 0.0-2.7%
Total Bilirubin Day 8 Range [5]: 1.6 to 6.1 mg/dL
Total Bilirubin LS Means [5]: 4.495 mg/dL
Percent Basophil LS Means (2X, 60 mg/kg IV every 8 hours, Geldings): 0.949%
Absolute Basophil Count LS Means [6]: 0.059 cells 10^3/μL
Percent Basophil LS Means [6]: 0.520%
Absolute Basophil Count Day 4 Range [7]: 0.00-0.39 cells 10^3/μL
Cholesterol Day 4 Range [7]: 43 to 73 mg/dL
Cholesterol LS Means [7]: 54.144 mg/dL
Creatinine Day 4 Range [7]: 1.1 to 2.1 mg/dL
Mean Corpuscular Hemoglobin Concentration Day 4 Range [7]: 34.3 to 36.0 g/dL
Mean Corpuscular Volume Day 4 Range [7]: 43.0 to 50.4 fL
Mean Corpuscular Volume LS Means [7]: 46.560 fL
Percent Basophil Day 4 Range [7]: 0.0-4.0%
Total Bilirubin Day 4 Range [7]: 1.7 to 5.5 mg/dL
Total Bilirubin LS Means [7]: 3.074 mg/dL
Absolute Basophil Count Day 8 Range [8]: 0.00-0.41 cells 10^3/μL
Cholesterol Day 8 Range [8]: 55 to 96 mg/dL
Creatinine Day 8 Range [8]: 0.7 to 1.6 mg/dL
Creatinine LS Means [8]: 1.144 mg/dL
Mean Corpuscular Hemoglobin Concentration Day 8 Range [8]: 33.1 to 34.5 g/dL
Mean Corpuscular Hemoglobin Concentration LS Means [8]: 33.899 g/dL
Mean Corpuscular Volume Day 8 Range [8]: 43.8 to 51.3 fL
Mean Corpuscular Volume LS Means [8]: 47.708 fL
Percent Basophil Day 8 Range [8]: 0.0-2.1%
Total Bilirubin Day 8 Range [8]: 2.8 to 6.2 mg/dL
Total Bilirubin LS Means [8]: 4.579 mg/dL
Percent Basophil LS Means (3X, 90 mg/kg IV every 8 hours, Geldings): 0.924%
Absolute Basophil Count LS Means [9]: 0.188 cells 10^3/μL
Percent Basophil LS Means [9]: 1.731%
Urinalysis, body weights, and physical examination parameters (30, 60, 90 mg/kg IV every 8 hours for 9 days vs placebo): No significant differences
